Test results: US11629154B2, “Tetrahydropyranooxazine derivatives having selective BACE1 inhibitory activity” (SHIONOGI & CO., LTD., priority 2018, dated 2023)

Assays:
[1] = target: human ether-a-go-go related gene (hERG) channel (Homo sapiens (Human), UniProt Q12809); experiment: hERG test; assay type: cell-based; settings: CHO cells expressing hERG
From the text: For the purpose of assessing risk of an electrocardiogram QT interval prolongation, effects on delayed rectifier K+ current (IKr), which plays an important role in the ventricular repolarization process of the compound of the present invention, was studied using CHO cells expressing human ether-a-go-go related gene (hERG) channel.
A cell was retained at a membrane potential of −80 mV by whole cell patch clamp method using an automated patch clamp system (QPatch; Sophion Bioscience A/S). After application of leak potential at −50 mV, IKr induced by depolarization pulse stimulation at +20 mV for 2 seconds and, further, repolarization pulse stimulation at −50 mV for 2 seconds was recorded.
Further, the % inhibition relative to the tail peak current before application of the compound of the present invention was calculated, and compared with the vehicle-applied group (0.1% dimethyl sulfoxide solution) to assess influence of the compound of the present invention on IKr.

[2] = target: recombinant BACE1 protein (Homo sapiens (Human), UniProt P56817); experiment: BACE1 biochemical FRET based assay; settings: for Selectivity: BACE1 versus BACE2; for IC50: FRET, pH 5.0
Chain of recombinant BACE1 protein (P56817 46-501): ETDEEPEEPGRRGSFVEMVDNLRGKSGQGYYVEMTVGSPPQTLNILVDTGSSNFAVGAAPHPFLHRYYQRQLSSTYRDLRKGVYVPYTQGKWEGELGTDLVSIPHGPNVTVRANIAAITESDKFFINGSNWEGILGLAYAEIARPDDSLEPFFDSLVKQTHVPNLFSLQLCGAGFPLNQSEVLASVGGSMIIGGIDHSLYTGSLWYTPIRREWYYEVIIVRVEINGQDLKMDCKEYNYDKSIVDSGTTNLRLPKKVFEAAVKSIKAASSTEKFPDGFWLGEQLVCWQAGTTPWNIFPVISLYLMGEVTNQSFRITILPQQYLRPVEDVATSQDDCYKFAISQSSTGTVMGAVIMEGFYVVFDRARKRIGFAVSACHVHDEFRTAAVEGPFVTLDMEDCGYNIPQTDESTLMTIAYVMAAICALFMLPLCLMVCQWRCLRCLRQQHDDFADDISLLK
From the text: (1) BACE1 Biochemical FRET Based Assay
This assay is a Fluorescence Resonance Energy Transfer Assay (FRET) based assay. The substrate for this assay is an APP derived 13 amino acids peptide that contains the ‘Swedish’ Lys-Met/Asn-Leu mutation of the amyloid precursor protein (APP) beta-site secretase cleavage site. This substrate also contains two fluorophores: (7-methoxycoumarin-4-yl) acetic acid (Mca) is a fluorescent donor with excitation wavelength at 320 nm and emission at 405 nm and 2,4-dinitrophenol (Dnp) is a proprietary quencher acceptor. […] Upon cleavage by BACE1, the fluorophore Mca is separated from the quenching group Dnp, restoring the full fluorescence yield of the donor. The increase in fluorescence is linearly related to the rate of proteolysis.
Briefly in a 384-well format recombinant BACE1 protein in a final concentration of 0.04 μg/mL was incubated for 450 minutes at room temperature with […] substrate in incubation buffer (final concentrations: 33.3 mM Citrate buffer pH 5.0, 0.033% PEG, 3% DMSO) in the absence or presence of compound. Next the amount of proteolysis was directly measured by fluorescence measurement at T=0′-120′ and T=450′ (excitation at 320 nm and emission at 405 nm). Results were expressed in RFU (Relative Fluorescence Units), as difference between T450 and Tx (Tx is chosen depending on the reaction speed between 0 and 120 minutes).
A best-fit curve was fitted by a minimum sum of squares method to the plot of % Controlmin versus compound concentration. From this an IC50 value (inhibitory concentration causing 50% inhibition of activity) can be obtained.
LC=Median of the low control values
=Low control: Reaction without enzyme
HC=Median of the High control values
=High Control: Reaction with enzyme % Effect=100−[(sample−LC)/(HC−LC)*100] % Control=(sample/HC)*100 % Controlmin=(sample−LC)/(HC−LC)*100

CYP3A4 = CYP3A4 (Homo sapiens (Human), UniProt P08684); experiment: CYP3A4(MDZ) MBI test; assay type: in vitro ADME; settings: pooled human liver microsomes, midazolam 1-hydroxylation, preincubation 0 or 30 minutes
Chain of CYP3A4 (P08684 whole entry): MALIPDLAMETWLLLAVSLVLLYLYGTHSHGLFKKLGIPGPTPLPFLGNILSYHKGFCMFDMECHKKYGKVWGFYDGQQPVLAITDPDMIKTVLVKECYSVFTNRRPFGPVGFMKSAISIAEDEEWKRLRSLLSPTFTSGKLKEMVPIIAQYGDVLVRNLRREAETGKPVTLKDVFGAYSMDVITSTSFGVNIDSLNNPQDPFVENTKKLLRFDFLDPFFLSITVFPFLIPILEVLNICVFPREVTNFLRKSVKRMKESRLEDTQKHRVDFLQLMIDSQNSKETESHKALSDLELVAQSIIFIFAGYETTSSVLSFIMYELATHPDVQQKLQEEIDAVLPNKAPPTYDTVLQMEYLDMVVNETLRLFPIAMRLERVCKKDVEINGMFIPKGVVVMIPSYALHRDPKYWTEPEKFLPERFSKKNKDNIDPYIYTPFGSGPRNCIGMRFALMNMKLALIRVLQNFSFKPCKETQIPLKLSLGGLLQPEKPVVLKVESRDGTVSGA
Method: CYP3A4(MDZ) MBI test is a test of investigating mechanism based inhibition (MBI) potential on CYP3A4 inhibition of a compound. CYP3A4 inhibition is evaluated using 1-hydroxylation reaction of midazolam (MDZ) by pooled human liver microsomes as a marker reaction.
The reaction conditions were as follows: substrate, 10 μmol/L MDZ; pre-reaction time, 0 or 30 minutes; substrate reaction time, 2 minutes; reaction temperature, 37° C.; protein content of pooled human liver microsomes, 0.5 mg/mL at pre-reaction time, […] (at 10-fold dilution) at reaction time; concentrations of the compound of the present invention, 1, 5, 10, 20 μmol/L (4 points).
Pooled human liver microsomes in a K-Pi buffer (pH 7.4) and a compound of the present invention solution as a pre-reaction solution were added to a 96-well plate at the composition of the pre-reaction. A part of pre-reaction solution was transferred to another 96-well plate, and diluted 10-fold by a substrate in a K-Pi buffer. NADPH as a co-factor was added to initiate the marker reaction (without preincubation). After a predetermined time of the marker reaction, methanol/acetonitrile=1/1 (v/v) solution was added in order to terminate the marker reaction. On the other hand, NADPH was also added to a remaining pre-reaction solution in order to initiate a pre-reaction (with preincubation). After a predetermined time of a pre-reaction, a part was transferred to another 96-well plate, and diluted 10-fold by a substrate in a K-Pi buffer in order to initiate the marker reaction. After a predetermined time of the marker reaction, methanol/acetonitrile=1/1 (v/v) solution is added in order to terminate the marker reaction. After centrifuged at 3000 rpm for 15 minutes, 1-hydroxymidazolam in the supernatant is quantified by LC/MS/MS.
The sample adding DMSO to a reaction system instead of compound of the present invention solution was adopted as a control (100%) because DMSO is used as a solvent to dissolve a compound of the present invention. Remaining activity (%) was calculated at each concentration of the compound of the present invention added as the solution, and IC50 value was calculated by reverse-presumption using a logistic model with a concentration and an inhibition rate. Shifted IC value was calculated as “IC value without preincubation (0 minutes)/IC value with preincubation (30 minutes)″. When a shifted IC value was 1.5 or more, this was defined as positive. When a shifted IC value was less than 1.1, this was defined as negative.

Chain of human ether-a-go-go related gene (hERG) channel (Q12809 whole entry): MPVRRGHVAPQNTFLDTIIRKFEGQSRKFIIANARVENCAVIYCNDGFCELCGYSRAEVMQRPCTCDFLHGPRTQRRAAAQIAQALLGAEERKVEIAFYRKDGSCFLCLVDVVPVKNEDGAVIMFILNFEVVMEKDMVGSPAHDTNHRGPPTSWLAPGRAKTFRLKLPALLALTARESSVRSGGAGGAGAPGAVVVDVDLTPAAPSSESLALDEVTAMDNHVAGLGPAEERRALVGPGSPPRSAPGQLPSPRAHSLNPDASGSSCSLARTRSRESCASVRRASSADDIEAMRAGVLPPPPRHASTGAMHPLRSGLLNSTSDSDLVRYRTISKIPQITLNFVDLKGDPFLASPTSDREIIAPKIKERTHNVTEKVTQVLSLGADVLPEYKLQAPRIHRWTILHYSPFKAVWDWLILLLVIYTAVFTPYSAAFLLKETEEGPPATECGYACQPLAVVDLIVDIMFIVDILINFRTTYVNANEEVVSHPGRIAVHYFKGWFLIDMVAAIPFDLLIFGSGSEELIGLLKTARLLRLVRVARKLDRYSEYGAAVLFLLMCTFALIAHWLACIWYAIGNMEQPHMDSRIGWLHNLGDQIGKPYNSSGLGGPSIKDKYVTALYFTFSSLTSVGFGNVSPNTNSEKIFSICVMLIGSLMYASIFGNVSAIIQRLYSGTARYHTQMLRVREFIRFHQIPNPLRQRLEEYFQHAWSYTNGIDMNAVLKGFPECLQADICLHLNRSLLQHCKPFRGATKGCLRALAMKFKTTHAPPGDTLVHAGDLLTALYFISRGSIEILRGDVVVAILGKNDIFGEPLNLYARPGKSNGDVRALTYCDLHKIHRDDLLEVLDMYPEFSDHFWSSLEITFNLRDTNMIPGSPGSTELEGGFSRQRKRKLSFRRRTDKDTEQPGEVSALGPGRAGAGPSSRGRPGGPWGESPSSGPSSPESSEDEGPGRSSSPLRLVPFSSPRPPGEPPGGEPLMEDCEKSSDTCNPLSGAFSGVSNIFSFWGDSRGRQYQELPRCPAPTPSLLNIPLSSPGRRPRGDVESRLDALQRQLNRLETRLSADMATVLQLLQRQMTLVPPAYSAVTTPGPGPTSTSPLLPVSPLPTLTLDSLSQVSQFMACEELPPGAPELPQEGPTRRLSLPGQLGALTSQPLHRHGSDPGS

SMILES | hERG inhibition (%) at 3 μM [1] [%] | Selectivity [2] | IC50 [2] [nM] | MBI MDZ (CYP3A4)
NC1=N[C@](CF)(c2cc(NC(=O)c3cnc(OCF)cn3)ccc2F)[C@H]2COCC[C@H]2O1 [Compound I-007] | 6.83 | 40.7 | 7.4 | Negative (When a shifted IC value was less than 1.1, this was defined as negative)
C[C@@H]1C[C@H]2OC(N)=N[C@](CF)(c3cc(NC(=O)c4cnc(OCF)cn4)ccc3F)[C@H]2CO1 [Compound I-008] | 18.5 | 43.7 | 14.8 | Negative (When a shifted IC value was less than 1.1, this was defined as negative)
NC1=N[C@](CF)(c2cc(NC(=O)c3cnc(-n4cncn4)cn3)ccc2F)[C@H]2COCC[C@H]2O1 [Compound I-047] | 11.6 | 69.2 | 17 | Negative (When a shifted IC value was less than 1.1, this was defined as negative)
C[C@@H]1C[C@H]2OC(N)=N[C@](CF)(c3cc(NC(=O)c4cnc(OCF)cn4)ccc3Cl)[C@H]2CO1 [Compound I-065] | 37.8 | 35.5 | 9.5 | Negative (When a shifted IC value was less than 1.1, this was defined as negative)
COc1cnc(C(=O)Nc2ccc(F)c([C@@]3(CF)N=C(N)O[C@@H]4CCOC[C@@H]43)c2)cn1 [Compound I-067] | 5.39 | 30.2 | 8.9 | Negative (When a shifted IC value was less than 1.1, this was defined as negative)
NC1=N[C@](CF)(c2cc(NC(=O)c3cnc(OC(F)F)cn3)ccc2F)[C@H]2COCC[C@H]2O1 [Compound I-076] | 18.5 | 63.1 | 2.8 | Negative (When a shifted IC value was less than 1.1, this was defined as negative)
NC1=N[C@](CF)(c2cc(NC(=O)c3ccc(C(F)(F)F)cn3)ccc2F)[C@H]2COCC[C@H]2O1 [Compound I-105] | 40.8 | 17.8 | 17 | Negative (When a shifted IC value was less than 1.1, this was defined as negative)
